The values below come from patent US20090221829A1 (priority 2005, published 2009).

Molecules are shown by their SMILES. Like-named read-outs stand apart in the source and are kept apart here.

Series [1] has as its system Candida albicans(KCTC 1940), Aspergillus niger (ATCC 9642) and Saccharomyces cerevisiae. The experiment in a line: Relative antifungal activity by agar dilution method (vs Miconazole).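 Note: scores 5 to 7 mean a lower fungicidal concentration than Miconazole so higher is more potent.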 It counts as cell-based. Conditions: agar dilution method; fungicidal concentration relative to control drug Miconazole (=4). The source says: Novel compounds represented by the above chemical formula (I), and the relative activities in accordance with the agar dilution method in Sabouraud dextrose agar media, Czapek agar media and Yeast Extract-Peptone-Dextrose agar media for Candida albicans(KCTC 1940), Aspergillus niger (ATCC 9642) and Saccharomyces cerevisiae are described respectively in following Table 1.

Another series deals with various kinds of Candida. Put plainly: MIC (Minimal Inhibitory Concentration) data. It counts as cell-based.
Series [2] is described as follows: Oral toxicity test (general symptoms, weight change, lethal case). Type of series: in vivo, rats (SD). To be noted: for LD50: SD, rat, in vivo, 1000 mg/kg, rats, oral, read-out: Acute toxicity LD50; for general symptom / lethal case / weight change: oral, 1,000 mg/kg, suspended in propylene glycol, SD rats. As for the experimental part: Meanwhile, the toxicity test of the compound in table II of the present invention was performed using […]. The compound was suspended in propylene glycol. The resulting suspension was medicated respectively on 6 female rats and 5 male rats (SD) of which age are 5 weeks, via oral after 12 hours starvation. The general symptoms, weight change and lethal case of the above rats were investigated.
In cases of the tests of the compounds (Compound No. 12, 119, 134, 148, 150)(delivery of 1,000 mg/kg), the general symptom and weight change were normal and the lethal case was not observed.

For another series, the system named is salmonella typhimurium. The experiment in a line: Bacterial reverse mutation test (Ames test). Type of series: cell-based.
Series [3] relates to cultured lung cells derived from chinese hamster. Put plainly: Chromosome aberration test. It counts as cell-based.
The nature of the next series: Micronucleus test. It counts as in vivo.
Setting [4] is: cultured lung cells derived from chinese hamster.
The mark [5] stands for this setting: C. albicans ATCC 11651, unit assumed.
Setting [6] is: C. albicans ATCC 28838, unit assumed.
The mark [7] stands for this setting: C. albicans IFO 1385, unit assumed.
Setting [8] is: C. albicans OY-003, unit assumed.
[9] abbreviates: C. albicans OY-019, unit assumed.
The mark [10] stands for this setting: C. krusei (KCTC7273), unit assumed.

For `CCCCCCCCCCCC1=[N+](Cc2ccc(C(C)(C)C)cc2)CCc2cc(NC)c(OC)cc21`, the “Relative Activity” value in series [1] is given as 1. Also, the MIC against various kinds of Candida (C. glabrata) amounted to 3.125. The compound further returned an MIC against various kinds of Candida (C. glulliermondi) of 3.125. The LD50 in series [2] (female) is more than 1500 mg/kg. Moreover, the LD50 in series [2] (male) is more than 2500 mg/kg. In series [2], the general symptom entry is given as “normal”, the lethal case result is on record as “not observed” and the weight change entry was “normal”. In the series on salmonella typhimurium, the “Genetic toxicity AMES test” value is recorded as “negative” and the “bacterial reverse mutation test (Ames test) result” value (“bacterial reverse mutation test” for short) was “negative”. In series [3] (setting [4]), the “Genetic toxicity Chromosome abmormality test” value was “negative” and the “chromosome aberration test result” value was “negative”. Moreover, in the series “Micronucleus test” (male ICR mice), the “Genetic toxicity Nucleus test” value is listed as “negative” and the micronucleus test result is recorded as “negative”.
`CCCCCCCCCCCC1=[N+](Cc2ccccc2F)CCc2cc(OC)c(OC)cc21.[Cl-]` [Compound No. 12, 1-n-undecyl-2-(2-fluorophenyl)methyl-3,4-dihydro-6,7-dimethoxyisoquinolinium chloride]: the “Relative Activity” value in series [1] is 2. For the same compound, the MIC in the series on various kinds of Candida (setting [5]) turned out to be 1.56 µg/mL; in the series with various kinds of Candida (setting [6]), 1.56 µg/mL; with various kinds of Candida (setting [7]), 3.12 µg/mL; with various kinds of Candida (setting [8]), 1.56 µg/mL; against various kinds of Candida (setting [9]), 3.12 µg/mL; against various kinds of Candida (C. albicans U.K, unit assumed), 1.56 µg/mL. Moreover, the MIC in the series on various kinds of Candida (C. glabrata, unit assumed) was found to be 1.56 µg/mL; against various kinds of Candida (C. glulliermondi, unit assumed), 1.56 µg/mL; with various kinds of Candida (setting [10]), 6.25 µg/mL; against various kinds of Candida (C. parapsilosis, unit assumed), 1.56 µg/mL. For the same compound, the values for the LD50 in series [2] (female) and in series [2] (male) were more than 1000 mg/kg and more than 1500 mg/kg, respectively. In series [2], the general symptom result is “normal”. In series [2], the lethal case entry was “not observed”. For the same compound, the weight change result in series [2] was “normal”. The “Genetic toxicity AMES test” value in the series on salmonella typhimurium was “negative”. Further, in the series with salmonella typhimurium, the “bacterial reverse mutation test” value is reported as “negative”. The “Genetic toxicity Chromosome abmormality test” value in series [3] was “negative”. For the same compound, in series [3], the “chromosome aberration test result” value is “negative”. Besides, in “Micronucleus test” (male ICR mice), the “Genetic toxicity Nucleus test” value is reported as “negative”. Besides, the micronucleus test result in the series “Micronucleus test” (mouse, in vivo) was “negative”.
For `CCCCCCCCCCCC1=[N+](Cc2ccc(C(C)(C)C)cc2)CCc2cc(OC)c(OC)cc21.[Cl-]` [Compound No. 127, 1-undecyl-2-(4-t-butylphenyl)methyl-3,4-dihydro-6,7-dimethoxy isoquinolinium chloride], the melting point was determined as 85 °C. Further, the “Relative Activity” value in series [1] is on record as 1. The compound further showed an MIC against various kinds of Candida (setting [5]) of 0.78 µg/mL. For the same compound, the MIC in the series with various kinds of Candida (setting [6]) is 1.56 µg/mL. For the same compound, the MIC in the series on various kinds of Candida (setting [7]) was determined as 0.78 µg/mL. Further, in the series on various kinds of Candida (setting [8]), the MIC is 1.56 µg/mL. The compound further registered an MIC in the series on various kinds of Candida (setting [9]) of 0.78 µg/mL. The same compound showed an MIC with various kinds of Candida (C. albicans U.K, unit assumed) of 1.56 µg/mL. In the series on various kinds of Candida (C. glabrata, unit assumed), this compound yielded an MIC of 1.56 µg/mL. In the series on various kinds of Candida (C. glulliermondi, unit assumed), this compound gave an MIC of 1.56 µg/mL. The MIC in the series on various kinds of Candida (setting [10]) amounted to 1.56 µg/mL. The compound further returned an MIC in the series on various kinds of Candida (C. parapsilosis, unit assumed) of 1.56 µg/mL.
In the case of `CCCCCCCCOc1c(C[N+]2=C(CCc3ccc(C(C)(C)C)cc3)c3cc(OC)c(OC)cc3CC2)cccc1OC` [Compound No. 134, 1-(2-(4-t-butylphenyl))ethyl-2-(2-octyloxy-3-methoxyphenyl)methyl-3,4-dihydro-6,7-dimethoxy isoquinolinium chloride], the “Relative Activity” value in series [1] was 1. Further, the MIC against various kinds of Candida (setting [5]) is 3.12 µg/mL; against various kinds of Candida (setting [6]) it was 1.56 µg/mL; in the series on various kinds of Candida (setting [7]), 3.12 µg/mL; in the series with various kinds of Candida (setting [8]), 1.56 µg/mL; in the series with various kinds of Candida (setting [9]), 1.56 µg/mL; in the series with various kinds of Candida (C. albicans U.K, unit assumed) it was 1.56 µg/mL. Besides, the MIC in the series with various kinds of Candida (C. glabrata, unit assumed) was determined as 3.12 µg/mL; in the series with various kinds of Candida (C. glulliermondi, unit assumed) it was 1.56 µg/mL; against various kinds of Candida (setting [10]) it was 3.12 µg/mL; against various kinds of Candida (C. parapsilosis, unit assumed) it was 6.25 µg/mL. In addition, the LD50 is more than 1000 mg/kg in series [2] (female) and more than 1200 mg/kg in series [2] (male). Further, the general symptom entry in series [2] is given as “normal”. For the same compound, in series [2], the lethal case result is “not observed”. Besides, in series [2], the weight change result was “normal”. For the same compound, the “Genetic toxicity AMES test” value in the series with salmonella typhimurium is “negative”. Also, the “bacterial reverse mutation test” value in the series with salmonella typhimurium is recorded as “negative”. Further, the “Genetic toxicity Chromosome abmormality test” value in series [3] is given as “negative”. Moreover, in series [3], the “chromosome aberration test result” value was “negative”. Moreover, the “Genetic toxicity Nucleus test” value in the series “Micronucleus test” (male ICR mice) is “negative”. Further, in the series “Micronucleus test” (mouse, in vivo), the micronucleus test result is “negative”.
